By pIC50 is commonly meant −log10 of the IC50, conventionally taken in molar units.

pIC50: −log10 of the molar value. Bounds are passed on as bounds.

Our source for the IC50 values is patent publication US20250154105A1, “POLYCYCLIC COMPOUND AND USE THEREOF” (TYK MEDICINES, INC., priority 2021, published 2025).

For experiment [1], the system named is human pleural mesothelioma cells NCI-H226. As to the kind of experiment: Cell anti-proliferation experiment (CCK8), NCI-H226. The class given is cell-based. Summed up: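 Viability was measured by CCK-8 (3 h, A450) after 3-day treatment with 0.15–333.33 nM compound in 0.1% DMSO medium. Curve-fitted IC50 was based on viability normalised to no-drug and cell-free controls.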

For another experiment, the system named is YAP-TEAD. The experiment can be described thus: YAP-TEAD inhibitor activity by Nano luciferase method (8xGTiiC-nLuc reporter in 293T cells). Type of experiment: cell-based. As to conditions: Homo sapiens, HEK-293T, 48 hours incubation, read-out: Nano-luciferase detection (IC50). In outline:
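IC50 derived from nLuc reporter signal normalised to 0 nM wells, after 48 h, 37 °C compound exposure (1:3.16 series, highest 10,000 nM). Cells: 293T transfected with 8xGTiiC-nLuc/CMV-fLuc plasmid, plated at 2000 per well.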

Consider `C[C@H](NC(=O)c1ccc2c(c1)c1csc(Cl)c1c(=O)n2-c1ccc(C(F)(F)F)cc1)c1ccccn1` [Example T-300], for which the negative-log IC50 (pIC50) (in experiment [1]; in the experiment with YAP-TEAD) was at least 6.00 each time.
For `C[C@H](NC(=O)c1ccc2c(c1)c1c(Cl)scc1c(=O)n2-c1ccc(C(F)(F)F)cc1)c1ccccn1` [Example T-301], the pIC50 (in experiment [1]; with YAP-TEAD) was at least 6.00 throughout.
With `C[C@H](NC(=O)c1ccc2c(c1)c1c(c(=O)n2-c2ccc(C(F)(F)F)cc2)CCCC1F)c1ccccn1` (stereo partly drawn) [Example T-302], the pIC50 (in experiment [1]; in the experiment with YAP-TEAD) was at least 6.00 throughout.
Turning to `C[C@H](NC(=O)c1ccc2c(c1)c1c(c(=O)n2-c2ccc(C(F)(F)F)cc2)CCC(F)C1)c1ccccn1` (stereo partly drawn) [Example T-303], the pIC50 (in experiment [1]; with YAP-TEAD) was at least 6.00 each time.
Turning to `C[C@H](NC(=O)c1ccc2c(c1)c1c(c(=O)n2-c2ccc(C(F)(F)F)cc2)CCCC1(F)F)c1ccccn1` [Example T-306], the pIC50 (in experiment [1]; with YAP-TEAD) was at least 6.00 each time.
As for `C[C@H](NC(=O)c1ccc2c(c1)c1c(c(=O)n2-c2ccc(C(F)(F)F)cc2)CCC(F)(F)C1)c1ccccn1` [Example T-307], the pIC50 (in experiment [1]; in the experiment with YAP-TEAD) was at least 6.00 throughout.
Consider `C[C@H](NC(=O)c1ccc2c(c1)c1cc(Cl)ccc1c(=O)n2-c1ccc(C(F)(F)F)cc1)c1ccccn1` [Example T-311], for which the pIC50 (in experiment [1]; with YAP-TEAD) was at least 6.00 in each case.
Take `COc1ccc2c(=O)n(-c3ccc(C(F)(F)F)cc3)c3ccc(C(=O)N[C@@H](C)c4ccccn4)cc3c2c1` [Example T-315]: the pIC50 (in experiment [1]; in the experiment with YAP-TEAD) was at least 6.00 in each case.
Consider `C[C@H](NC(=O)c1ccc2c(c1)c1c(C#N)cccc1c(=O)n2-c1ccc(C(F)(F)F)cc1)c1ccccn1` [Example T-318], for which the pIC50 (in experiment [1]; in the experiment with YAP-TEAD) was at least 6.00 in each case.
With `C[C@H](NC(=O)c1ccc2c(c1)c1cc(C#N)ccc1c(=O)n2-c1ccc(C(F)(F)F)cc1)c1ccccn1` [Example T-319], the pIC50 (in experiment [1]; in the experiment on YAP-TEAD) was at least 6.00 in each case.
Take `C[C@H](NC(=O)c1ccc2c(c1)c1ccc(C#N)cc1c(=O)n2-c1ccc(C(F)(F)F)cc1)c1ccccn1` [Example T-320]: the pIC50 (in experiment [1]; in the experiment with YAP-TEAD) was at least 6.00 in each case.
Regarding `C[C@H](NC(=O)c1ccc2c(c1)c1cccc(C#N)c1c(=O)n2-c1ccc(C(F)(F)F)cc1)c1ccccn1` [Example T-321], the pIC50 (in experiment [1]; in the experiment with YAP-TEAD) was at least 6.00 throughout.
As for `CNS(=O)(=O)c1ccc2c(c1)c1nn(C)cc1c(=O)n2-c1cc(F)cc(F)c1` [Example T-322], the pIC50 (in experiment [1]; in the experiment with YAP-TEAD) was at least 6.00 each time.
For the compound `C=C1c2cn(C)nc2-c2cc(C(=O)N[C@@H](C)c3ccccn3)ccc2N1c1ccc(C(F)(F)F)cc1` [Example T-324], the pIC50 (in experiment [1]; in the experiment on YAP-TEAD) was at least 6.00 throughout.
For the compound `C[C@H](NC(=O)c1ccc2c(c1)-c1nn(C)cc1[C@@H](C)N2c1ccc(C(F)(F)F)cc1)c1ccccn1` [Example T-326], the pIC50 (in experiment [1]; with YAP-TEAD) was at least 6.00 throughout.
In the case of `C[C@H](NC(=O)c1ccc2c(c1)-c1nn(C)cc1[C@H](C)N2c1ccc(C(F)(F)F)cc1)c1cccc(N)n1` [Example T-327], the pIC50 (in experiment [1]; in the experiment with YAP-TEAD) was at least 6.00 each time.
Take `C[C@H](NC(=O)c1ccc2c(c1)c1csnc1c(=O)n2-c1ccc(C(F)(F)F)cc1)c1ccccn1` [Example T-328]: the pIC50 (in experiment [1]; in the experiment on YAP-TEAD) was at least 6.00 in each case.
Consider `C[C@H](NC(=O)c1ccc2c(c1)c1nscc1c(=O)n2-c1ccc(C(F)(F)F)cc1)c1ccccn1` [Example T-329], for which the negative-log IC50 (pIC50) (in experiment [1]; in the experiment with YAP-TEAD) was at least 6.00 throughout.
Turning to `C[C@H](NC(=O)c1ccc2c(c1)c1ncsc1c(=O)n2-c1ccc(C(F)(F)F)cc1)c1ccccn1` [Example T-330], the pIC50 (in experiment [1]; in the experiment on YAP-TEAD) was at least 6.00 in each case.
Take `C[C@H](NC(=O)c1ccc2c(c1)c1scnc1c(=O)n2-c1ccc(C(F)(F)F)cc1)c1ccccn1` [Example T-331]: the negative-log IC50 (pIC50) (in experiment [1]; in the experiment with YAP-TEAD) was at least 6.00 throughout.
`C[C@H](NC(=O)c1ccc2c(c1)c1ncncc1c(=O)n2-c1ccc(C(F)(F)F)cc1)c1ccccn1` [Example T-332]: the negative logarithm of the IC50 (pIC50) (in experiment [1]; in the experiment with YAP-TEAD) was at least 6.00 each time.
Consider `C[C@H](NC(=O)c1ccc2c(c1)c1cncnc1c(=O)n2-c1ccc(C(F)(F)F)cc1)c1ccccn1` [Example T-333], for which the negative logarithm of the IC50 (pIC50) (in experiment [1]; in the experiment on YAP-TEAD) was at least 6.00 each time.
Take `C[C@H](NC(=O)c1ccc2c(c1)c1nnccc1c(=O)n2-c1ccc(C(F)(F)F)cc1)c1ccccn1` [Example T-334]: the pIC50 (in experiment [1]; in the experiment with YAP-TEAD) was at least 6.00 in each case.
Regarding `C[C@H](NC(=O)c1ccc2c(c1)c1cnncc1c(=O)n2-c1ccc(C(F)(F)F)cc1)c1ccccn1` [Example T-335], the pIC50 (in experiment [1]; with YAP-TEAD) was at least 6.00 throughout.
With `C[C@H](NC(=O)c1ccc2c(c1)c1ccnnc1c(=O)n2-c1ccc(C(F)(F)F)cc1)c1ccccn1` [Example T-336], the pIC50 (in experiment [1]; in the experiment with YAP-TEAD) was at least 6.00 each time.
Consider `C[C@H](NC(=O)c1ccc2c(c1)c1nccnc1c(=O)n2-c1ccc(C(F)(F)F)cc1)c1ccccn1` [Example T-337], for which the pIC50 (in experiment [1]; with YAP-TEAD) was at least 6.00 throughout.
For `Cc1scc2c(=O)n(-c3ccc(C(F)(F)F)cc3)c3ncc(C(=O)N[C@@H](C)c4ccccn4)cc3c12` [Example T-372], the pIC50 (in experiment [1]; with YAP-TEAD) was 5.30 to 6.00 each time.
In the case of `Cc1scc2c1c(=O)n(-c1ccc(C(F)(F)F)cc1)c1ncc(C(=O)N[C@@H](C)c3ccccn3)cc21` [Example T-373], the pIC50 (in experiment [1]; in the experiment with YAP-TEAD) was 5.30 to 6.00 each time.
On to `C[C@H](NC(=O)c1cnc2c(c1)c1cocc1c(=O)n2-c1ccc(C(F)(F)F)cc1)c1ccccn1` [Example T-374], for which the pIC50 (in experiment [1]; in the experiment on YAP-TEAD) was at least 6.00 in each case.
For the compound `Cc1occ2c(=O)n(-c3ccc(C(F)(F)F)cc3)c3ncc(C(=O)N[C@@H](C)c4ccccn4)cc3c12` [Example T-375], the pIC50 (in experiment [1]; with YAP-TEAD) was at least 6.00 throughout.
For `Cc1occ2c1c(=O)n(-c1ccc(C(F)(F)F)cc1)c1ncc(C(=O)N[C@@H](C)c3ccccn3)cc21` [Example T-376], the pIC50 (in experiment [1]; with YAP-TEAD) was at least 6.00 each time.
With `C[C@H](NC(=O)c1cnc2c(c1)c1sccc1c(=O)n2-c1ccc(C(F)(F)F)cc1)c1ccccn1` [Example T-377], the pIC50 (in experiment [1]; in the experiment on YAP-TEAD) was at least 6.00 each time.
`C[C@H](NC(=O)c1cnc2c(c1)c1ccsc1c(=O)n2-c1ccc(C(F)(F)F)cc1)c1ccccn1` [Example T-378]: the pIC50 (in experiment [1]; in the experiment with YAP-TEAD) was at least 6.00 in each case.
`C[C@H](NC(=O)c1ccc2c(n1)c1cscc1c(=O)n2-c1ccc(C(F)(F)F)cc1)c1ccccn1` [Example T-384]: the pIC50 (in experiment [1]; in the experiment on YAP-TEAD) was at least 6.00 each time.
For the compound `Cc1scc2c(=O)n(-c3ccc(C(F)(F)F)cc3)c3ccc(C(=O)N[C@@H](C)c4ccccn4)nc3c12` [Example T-385], the negative logarithm of the IC50 (pIC50) (in experiment [1]; in the experiment with YAP-TEAD) was at least 6.00 throughout.
Turning to `Cc1scc2c1c(=O)n(-c1ccc(C(F)(F)F)cc1)c1ccc(C(=O)N[C@@H](C)c3ccccn3)nc21` [Example T-386], the pIC50 (in experiment [1]; in the experiment on YAP-TEAD) was at least 6.00 throughout.
